target: T1, human aquaporin 9 (Homo sapiens, UniProt O43315); assay: Calcein quenching fluostar assay; format: cell-based; conditions: inhibition of human aquaporin 9; Human AQP9 cell line, tetracyclin-induced; 25° C.
T1 construct: expressed in transfected cells; host or cells: Human AQP9 cell line with tetracycline added to the medium
T1 sequence (O43315 1-295): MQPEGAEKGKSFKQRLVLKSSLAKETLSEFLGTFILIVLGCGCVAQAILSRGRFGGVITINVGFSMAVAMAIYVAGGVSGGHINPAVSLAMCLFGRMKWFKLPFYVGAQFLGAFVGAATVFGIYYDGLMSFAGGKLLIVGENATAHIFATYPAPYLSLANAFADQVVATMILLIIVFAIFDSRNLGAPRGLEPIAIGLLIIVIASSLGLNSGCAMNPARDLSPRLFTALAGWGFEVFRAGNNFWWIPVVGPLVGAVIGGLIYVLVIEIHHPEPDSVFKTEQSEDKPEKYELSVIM
Method: Calcein Quenching Fluostar Assay
A calcein quenching fluostar assay was performed in order to investigate the biological activity of the newly synthesized examples 1 to 57. This type of assay is disclosed in J. Biol. Chem., 2011, 286, 44319-44325 and Am. J. Physiol. Renal Physiol. (2010), 298, F224-230.
1) Two days prior to commencement of the assay, seed 10,000 cells/well of 96 well black clear bottom plate (Greiner Poly-lysin plate). A 1:1 mix of Dulbecco's Modified Eagle's Medium:Nutrient Mixture F-12 (DMEM: F12) was obtained from Gibco. Tetracycline stock of 5 mg/ml in 96% ethanol is used. Medium:DMEM/F12/10% Donor Bovine Serum, Human AQP9 cell line+1:270,000 tetracyclin, mouse AQP9 cell line+1:2,700,000 tetracycline.
2) Day of assay: Flick/slam off the medium and add 50 μl/well of loading solution: 5 ml DMEM/F12/10% Donor Bovine Serum, 25 μl Calcein AM—from freshly dissolved aliquot in 50 μl DMSO (VWR #734-1434), and 100 μl Probenecid.
3) Incubate the well for 90 minutes at 37° C.
4) Perform one wash with 75 μl wash buffer.
5) Add 75 μl of an example compound prepared in wash buffer per well.
Example compounds are prepared in 500 μl U bottom PP plates (NUNC). […] Substance in DMSO are added to row A; 180 μl of wash buffer+1% DMSO are added to rows B-H. 90 μl from row A are transferred and mixed with all other wells (up to row G) to make a 3-fold dilution series.
6) Assay in FLUOstar Optima at 25° C. Settings buffer addition at 135 μl seconds, add 75 μl/well, record time course for 30 seconds, add sucrose buffer 3.6 seconds into recording.
7) Normalization to initial in Excel.
8) Fit to “exponential decay” function in GraphPad Prism 5.0, then arrange half live shrinking values according to wells and fit dose-response curves.

Row | IC50 [nM] | SMILES
1 | 233 | CCn1c(SCC(=O)Nc2nnc(-c3ccc(OC)cc3)s2)nnc1-c1ccccc1Cl [Example 19, 2-{[5-(2-Chlorophenyl)-4-ethyl-4H-1,2,4-triazol-3-yl]sulfanyl}-N-[5-(4-methoxyphenyl)-1,3,4-thiadiazol-2-yl]acetamide]
2 | 56 | CCn1c(SCC(=O)Nc2nnc(-c3ccc(OC)cc3)s2)nnc1-c1cccnc1 [Example 20, 2-{[4-Ethyl-5-(pyridin-3-yl)-4H-1,2,4-triazol-3-yl]sulfanyl}-N-[5-(4-methoxyphenyl)-1,3,4-thiadiazol-2-yl]acetamide]
3 | 68 | CCn1c(SCC(=O)Nc2nnc(-c3ccc(OC)cc3)s2)nnc1-c1ccncc1 [Example 21, 2-{[4-Ethyl-5-(pyridin-4-yl)-4H-1,2,4-triazol-3-yl]sulfanyl}-N-[5-(4-methoxyphenyl)-1,3,4-thiadiazol-2-yl]acetamide]
4 | 160 | CCn1c(SCC(=O)Nc2nnc(-c3ccc(OC)cc3)s2)nnc1-c1cccc(OC)c1 [Example 22, 2-{[4-Ethyl-5-(3-methoxyphenyl)-4H-1,2,4-triazol-3-yl]sulfanyl}-N-[5-(4-methoxyphenyl)-1,3,4-thiadiazol-2-yl]acetamide]
5 | 372 | CCn1c(SCC(=O)Nc2nnc(-c3ccc(F)cc3)s2)nnc1-c1cccc(C)c1 [Example 23]
6 | 427 | CCn1c(SCC(=O)Nc2nnc(-c3ccc(F)cc3)s2)nnc1-c1ccc(C)cc1 [Example 24, 2-{[4-Ethyl-5-(4-methylphenyl)-4H-1,2,4-triazol-3-yl]sulfanyl}-N-[5-(4-fluorophenyl)-1,3,4-thiadiazol-2-yl]acetamide]
7 | 375 | CCn1c(SCC(=O)Nc2nnc(-c3ccc(F)cc3)s2)nnc1-c1cccc(OC)c1 [Example 25, 2-{[4-Ethyl-5-(3-methoxyphenyl)-4H-1,2,4-triazol-3-yl]sulfanyl}-N-[5-(4-fluorohenyl)-1,3,4-thiadiazol-2-yl]acetamide]
8 | 477 | CCn1c(SCC(=O)Nc2nnc(-c3ccc(F)cc3)s2)nnc1-c1ccc(OC)cc1 [Example 26, 2-{[4-Ethyl-5-(4-methoxyphenyl)-4H-1,2,4-triazol-3-yl]sulfanyl}-N-[5-(4-fluorophenyl)-1,3,4-thiadiazol-2-yl]acetamide]
9 | 366 | CCn1c(SCC(=O)Nc2nnc(-c3ccc(F)cc3)s2)nnc1-c1ccccc1F [Example 27, 2-{[4-Ethyl-5-(2-fluorophenyl)-4H-1,2,4-triazol-3-yl]sulfanyl}-N-[5-(4-fluorophenyl)-1,3,4-thiadiazol-2-yl]acetamide]
10 | 200 | CCn1c(SCC(=O)Nc2nnc(-c3ccc(F)cc3)s2)nnc1-c1cccc(F)c1 [Example 28]
11 | 427 | CCn1c(SCC(=O)Nc2nnc(-c3ccc(F)cc3)s2)nnc1-c1ccccn1 [Example 29, 2-{[4-Ethyl-5-(pyridin-2-yl)-4H-1,2,4-triazol-3-yl]sulfanyl}-N-[5-(4-fluorophenyl)-1,3,4-thiadiazol-2-yl]acetamide]

The remaining lines, values behind:

Row | SMILES | IC50 [nM]
12 | Cn1c(SCC(=O)Nc2nnc(-c3ccc(F)cc3)s2)nnc1-c1ccc(F)cc1 [Example 1, N-[5-(4-fluorophenyl)-1,3,4-thiadizole-2-yl]-2-{[5-(4-fluorophenyl)-4-methyl-4H-1,2,4-triazole-3-yl]sulfanyl}acetamide] | 393
13 | Cn1c(SCC(=O)Nc2nnc(-c3ccccc3F)s2)nnc1-c1ccncc1 [Example 2, N-[5-(2-fluorophenyl)-1,3,4-thiadiazol-2-yl]-2-{[4-methyl-5-(pyridin-4-yl)-4H-1,2,4-triazol-3-yl]sulfanyl}acetamide] | 193
14 | Cn1c(SCC(=O)Nc2nnc(-c3cccc(F)c3)s2)nnc1-c1ccc(F)cc1 [Example 3, N-[5-(3-fluorophenyl)-1,3,4-thiadizole-2-yl]-2-{[5-(4-fluorophenyl)-4-methyl-4H-1,2,4-triazole-3-yl]sulfanyl}acetamide] | 1290
15 | COc1ccccc1-c1nnc(NC(=O)CSc2nnc(-c3ccc(F)cc3)n2C)s1 [Example 4, 2-{[5-(4-Fluorophenyl)-4-methyl-4H-1,2,4-triazole-3-yl]sulfanyl}-N-[5-(2-methoxyphenyl)-1,3,4-thiadizole-2-yl]-acetamide] | 4740
16 | CCn1c(SCC(=O)Nc2nnc(-c3cccc(OC)c3)s2)nnc1-c1ccc(F)cc1 [Example 5, 2-{[4-ethyl-5-(4-fluorophenyl)-4H-1,2,4-triazol-3-yl]sulfanyl}-N-[5-(3-methoxyphenyl)-1,3,4-thiadiazol-2-yl]acetamide] | 4830
17 | COc1ccc(-c2nnc(NC(=O)CSc3nnc(-c4ccc(F)cc4)n3C)s2)cc1 [Example 6, 2-{[5-(4-Fluorophenyl)-4-methyl-4H-1,2,4-triazole-3-yl]sulfanyl}-N-[5-(4-methoxyphenyl)-1,3,4-thiadizole-2-yl]-acetamide] | 253
18 | Cn1c(SCC(=O)Nc2nnc(-c3ccccc3F)s2)nnc1-c1ccc(Cl)cc1 [Example 7, 2-{[5-(4-Chlorophenyl)-4-methyl-4H-1,2,4-triazole-3-yl]sulfanyl}-N-[5-(2-fluorophenyl)-1,3,4-thiadizole-2-yl]-acetamide] | 260
19 | Cn1c(SCC(=O)Nc2nnc(-c3ccccc3F)s2)nnc1-c1ccc(F)cc1 [Example 8, 2-{[5-(4-Fluorophenyl)-4-methyl-4H-1,2,4-triazole-3-yl]sulfanyl}-N-[5-(2-fluorophenyl)-1,3,4-thiadizole-2-yl]-acetamide] | 157
20 | Cn1c(SCC(=O)Nc2nnc(-c3ccc(F)cc3)s2)nnc1-c1ccncc1 [Example 9, N-[5-(4-fluorophenyl)-1,3,4-thiadiazol-2-yl]-2-{[4-methyl-5-(pyridin-4-yl)-4H-1,2,4-triazol-3-yl]sulfanyl}acetamide] | 112
21 | COc1ccc(-c2nnc(NC(=O)CSc3nnc(-c4ccncc4)n3C)s2)cc1 [Example 10, N-[5-(4-methoxyphenyl)-1,3,4-thiadiazol-2-yl]-2-{[4-methyl-5-(pyridin-4-yl)-4H-1,2,4-triazol-3-yl]sulfanyl}acetamide] | 37
22 | CCn1c(SCC(=O)Nc2nnc(-c3ccc(OC)cc3)s2)nnc1-c1ccc(F)cc1 [Example 11, 2-{[4-Ethyl-5-(4-fluorophenyl)-4H-1,2,4-triazol-3-yl]sulfanyl}-N-[5-(4-methoxyphenyl)-1,3,4-thiadiazol-2-yl]acetamide] | 40
23 | CCn1c(SCC(=O)Nc2nnc(-c3ccc(F)cc3)s2)nnc1-c1ccc(F)cc1 [Example 12, 2-{[4-Ethyl-5-(4-fluorophenyl)-4H-1,2,4-triazol-3-yl]sulfanyl}-N-[5-(4-fluorophenyl)-1,3,4-thiadiazol-2-yl]acetamide] | 56
24 | CCn1c(SCC(=O)Nc2nnc(-c3ccc(OC)cc3)s2)nnc1-c1ccccc1C [Example 13, 2-{[4-Ethyl-5-(2-methylphenyl)-4H-1,2,4-triazol-3-yl]sulfanyl}-N-[5-(4-methoxyphenyl)-1,3,4-thiadiazol-2-yl]acetamide] | 323
25 | CCn1c(SCC(=O)Nc2nnc(-c3ccc(OC)cc3)s2)nnc1-c1cccc(C)c1 [Example 14, 2-{[4-Ethyl-5-(3-methylphenyl)-4H-1,2,4-triazol-3-yl]sulfanyl}-N-[5-(4-methoxyphenyl)-1,3,4-thiadiazol-2-yl]acetamide] | 172
26 | CCn1c(SCC(=O)Nc2nnc(-c3ccc(OC)cc3)s2)nnc1-c1ccc(C)cc1 [Example 15, 2-{[4-Ethyl-5-(4-methylphenyl)-4H-1,2,4-triazol-3-yl]sulfanyl}-N-[5-(4-methoxyphenyl)-1,3,4-thiadiazol-2-yl]acetamide] | 262
27 | CCn1c(SCC(=O)Nc2nnc(-c3ccc(OC)cc3)s2)nnc1-c1ccc(OC)cc1 [Example 16, 2-{[4-Ethyl-5-(4-methoxyphenyl)-4H-1,2,4-triazol-3-yl]sulfanyl}-N-[5-(4-methoxyphenyl)-1,3,4-thiadiazol-2-yl]acetamide] | 269
28 | CCn1c(SCC(=O)Nc2nnc(-c3ccc(OC)cc3)s2)nnc1-c1ccccc1F [Example 17, 2-{[4-Ethyl-5-(2-fluorophenyl)-4H-1,2,4-triazol-3-yl]sulfanyl}-N-[5-(4-methoxyphenyl)-1,3,4-thiadiazol-2-yl]acetamide] | 139
29 | CCn1c(SCC(=O)Nc2nnc(-c3ccc(OC)cc3)s2)nnc1-c1cccc(F)c1 [Example 18, 2-{[4-Ethyl-5-(3-fluorophenyl)-1,2,4-triazol-3-yl]sulfanyl}-N-[5-(4-methoxyphenyl)-1,3,4-thiadiazol-2-yl]acetamide] | 135
